Experimental data from patent publication US20100160356A1, “NOVEL CYCLOBUTYL COMPOUNDS AS KINASE INHIBITORS” (priority 2006, published 2010).
pIC50: −log10 of the molar value.

What was measured:
IGF1R = IGF1R (Homo sapiens, UniProt P08069); test: Inhibition of IGF1R (flashplate assay); format: biochemical; conditions: flashplate method
How it was run: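 IGF1R kinase incubated 1 hr at room temperature with ^33P-ATP and biotinylated poly(Glu,Tyr)4:1 ± test compound; stopped with EDTA, wells washed after 30 min. Bound radioactivity counted by scintillation; IC50 calculated.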

[1] = target: T1, FAK (focal adhesion kinase) (Homo sapiens, UniProt Q05397); test: Inhibition of FAK (ELISA assay), FAK phosphorylation in cells; format: cell-based; conditions: human cells with FAK amplification
T1 construct: endogenous in cells; host or cells: Calu-6 or HT-29
How it was run: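 Cells pretreated 45 min with increasing compound concentrations, with a reference inhibitor series as internal control. FAK from lysates captured by specific antibody on ELISA plate or LUMINEX beads; tyrosine phosphorylation detected with anti-phosphotyrosine antibody by chemiluminescence or fluorescence.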

TGFβR1 = target: T2, TGFβR1 (Homo sapiens, UniProt P36897); test: Inhibition of TGFβR1 (flashplate assay); format: biochemical; conditions: flashplate method
T2 sequence (P36897 34-503): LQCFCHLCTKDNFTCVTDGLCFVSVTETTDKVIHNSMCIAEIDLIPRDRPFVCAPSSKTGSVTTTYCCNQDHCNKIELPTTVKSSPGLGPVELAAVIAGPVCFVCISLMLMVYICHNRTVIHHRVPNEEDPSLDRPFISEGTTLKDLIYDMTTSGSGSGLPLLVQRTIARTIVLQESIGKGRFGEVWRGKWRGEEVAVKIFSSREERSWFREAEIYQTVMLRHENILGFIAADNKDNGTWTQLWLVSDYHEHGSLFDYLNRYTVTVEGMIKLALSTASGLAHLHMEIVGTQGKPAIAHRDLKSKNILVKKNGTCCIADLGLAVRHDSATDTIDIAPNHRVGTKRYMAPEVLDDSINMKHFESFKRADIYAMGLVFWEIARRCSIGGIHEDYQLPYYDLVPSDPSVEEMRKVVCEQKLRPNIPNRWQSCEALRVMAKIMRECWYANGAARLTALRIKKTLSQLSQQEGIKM
How it was run: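 Kinase was incubated 45 min with 33P-ATP and biotinylated substrate, with or without test substances, then stopped with EDTA. Incorporated radioactivity was counted by scintillation in a flashplate format. IC50 values were calculated from the counts.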

insulin receptor (InsR) = target: T3, insulin receptor (InsR) (Homo sapiens, UniProt P06213); test: Inhibition of InsR (ELISA assay), insulin-stimulated autophosphorylation in cells; format: cell-based; conditions: human cells stimulated with insulin
T3 construct: endogenous in cells; host or cells: HepG2
Procedure: Cultivated human cells which express the insulin receptor (InsR) (for example HepG2) are stimulated using human insulin, the natural ligand of InsR. The stimulation induces autophosphorylation of tyrosine residues in the cytoplasmatic InsR domain, which triggers signal transduction cascades, which initiate various biological reactions of the cells. The amount of phosphorylated InsR is determined by a receptor-specific capture ELISA or an analogous LUMINEX assay. The InsR from cell lysates is bound to a 96-well ELISA plate or LUMINEX beads by means of a specific antibody (“capturing”), and the tyrosine phosphorylation is detected using a biotin-labelled anti-phosphotyrosine antibody and a streptavidin-peroxidase conjugate by a chemiluminescence method or by means of a fluorescence-labelled anti-phosphotyrosine antibody. For determination of the activity of kinase inhibitors, cells are pretreated with increasing concentrations of these compounds for 45 min and subsequently stimulated using insulin for 5 min. As internal control, the biological activity of the ligand insulin is checked, and a concentration series of a reference inhibitor is measured.

SGK1 = target: T4, SGK1 (Homo sapiens, UniProt O00141); test: Inhibition of SGK1 (flashplate assay); format: biochemical; conditions: flashplate method
T4 sequence (O00141 1-431): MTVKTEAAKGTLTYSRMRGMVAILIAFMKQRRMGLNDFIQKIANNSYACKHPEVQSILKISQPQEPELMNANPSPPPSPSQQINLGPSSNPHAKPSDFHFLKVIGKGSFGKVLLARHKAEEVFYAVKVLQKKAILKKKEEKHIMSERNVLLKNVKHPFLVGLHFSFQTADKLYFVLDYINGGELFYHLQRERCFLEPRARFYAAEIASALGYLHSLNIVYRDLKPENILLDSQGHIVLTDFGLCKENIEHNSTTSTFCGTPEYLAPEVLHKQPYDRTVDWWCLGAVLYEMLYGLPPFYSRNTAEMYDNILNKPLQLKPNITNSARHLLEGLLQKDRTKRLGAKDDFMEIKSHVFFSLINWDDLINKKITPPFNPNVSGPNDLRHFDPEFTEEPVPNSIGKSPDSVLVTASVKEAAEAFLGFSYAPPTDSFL
Procedure: The test plates used are 384-well flashplate microtitre plates from Perkin Elmer (USA). The components of the kinase reaction are pipetted into the assay plate. The SGK1 kinase is incubated for 3 hr. with radioactively labelled ^33P-ATP in the presence and absence of test substances in a total volume of 100 μl at room temperature together with biotinylated poly(Glu, Tyr)4:1. The reaction is terminated using 25 μl of a 200 mM EDTA solution. After incubation for a further 30 min at room temperature, the supernatants are removed by suction, and the wells are washed three times with 100 μl of 0.9% NaCl solution each time. The radioactivity is measured using a Topcount scintillation counter (PerkinElmer, USA). IC50 values are calculated using the RS1 computer program.

Sequence of IGF1R (P08069 31-1367, species assumed): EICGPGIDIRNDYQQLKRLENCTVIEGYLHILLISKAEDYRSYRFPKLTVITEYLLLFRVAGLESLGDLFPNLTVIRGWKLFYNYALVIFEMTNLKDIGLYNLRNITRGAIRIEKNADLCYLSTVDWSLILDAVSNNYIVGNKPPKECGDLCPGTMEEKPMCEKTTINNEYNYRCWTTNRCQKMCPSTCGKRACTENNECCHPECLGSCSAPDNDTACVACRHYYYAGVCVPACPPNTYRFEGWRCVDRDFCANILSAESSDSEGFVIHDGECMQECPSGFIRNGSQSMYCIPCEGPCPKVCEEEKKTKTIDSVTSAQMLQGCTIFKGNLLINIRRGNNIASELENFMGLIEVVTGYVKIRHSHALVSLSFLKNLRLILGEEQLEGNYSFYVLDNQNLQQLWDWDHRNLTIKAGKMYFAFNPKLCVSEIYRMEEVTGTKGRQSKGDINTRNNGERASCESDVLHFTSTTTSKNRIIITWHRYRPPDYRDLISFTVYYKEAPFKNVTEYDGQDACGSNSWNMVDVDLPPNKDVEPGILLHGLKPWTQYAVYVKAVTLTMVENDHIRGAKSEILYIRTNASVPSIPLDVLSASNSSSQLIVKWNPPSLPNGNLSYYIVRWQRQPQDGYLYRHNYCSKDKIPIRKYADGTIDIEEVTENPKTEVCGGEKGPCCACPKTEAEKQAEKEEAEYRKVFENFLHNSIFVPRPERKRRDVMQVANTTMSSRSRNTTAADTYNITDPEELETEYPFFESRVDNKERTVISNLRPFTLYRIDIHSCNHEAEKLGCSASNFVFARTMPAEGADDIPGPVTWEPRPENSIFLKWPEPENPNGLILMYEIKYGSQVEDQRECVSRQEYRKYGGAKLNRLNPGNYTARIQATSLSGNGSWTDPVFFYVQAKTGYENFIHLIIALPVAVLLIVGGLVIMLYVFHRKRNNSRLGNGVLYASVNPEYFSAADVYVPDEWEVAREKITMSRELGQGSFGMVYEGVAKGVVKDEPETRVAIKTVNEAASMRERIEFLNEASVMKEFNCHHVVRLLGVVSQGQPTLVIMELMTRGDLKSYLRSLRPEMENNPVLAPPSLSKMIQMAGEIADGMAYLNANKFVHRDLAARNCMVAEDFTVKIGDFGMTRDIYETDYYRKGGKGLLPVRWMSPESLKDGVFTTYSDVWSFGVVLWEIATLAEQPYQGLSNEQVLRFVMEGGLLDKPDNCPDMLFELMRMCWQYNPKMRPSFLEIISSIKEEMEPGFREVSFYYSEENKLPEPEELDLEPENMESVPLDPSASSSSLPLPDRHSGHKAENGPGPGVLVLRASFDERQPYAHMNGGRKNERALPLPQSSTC
T1 sequence (Q05397 whole entry): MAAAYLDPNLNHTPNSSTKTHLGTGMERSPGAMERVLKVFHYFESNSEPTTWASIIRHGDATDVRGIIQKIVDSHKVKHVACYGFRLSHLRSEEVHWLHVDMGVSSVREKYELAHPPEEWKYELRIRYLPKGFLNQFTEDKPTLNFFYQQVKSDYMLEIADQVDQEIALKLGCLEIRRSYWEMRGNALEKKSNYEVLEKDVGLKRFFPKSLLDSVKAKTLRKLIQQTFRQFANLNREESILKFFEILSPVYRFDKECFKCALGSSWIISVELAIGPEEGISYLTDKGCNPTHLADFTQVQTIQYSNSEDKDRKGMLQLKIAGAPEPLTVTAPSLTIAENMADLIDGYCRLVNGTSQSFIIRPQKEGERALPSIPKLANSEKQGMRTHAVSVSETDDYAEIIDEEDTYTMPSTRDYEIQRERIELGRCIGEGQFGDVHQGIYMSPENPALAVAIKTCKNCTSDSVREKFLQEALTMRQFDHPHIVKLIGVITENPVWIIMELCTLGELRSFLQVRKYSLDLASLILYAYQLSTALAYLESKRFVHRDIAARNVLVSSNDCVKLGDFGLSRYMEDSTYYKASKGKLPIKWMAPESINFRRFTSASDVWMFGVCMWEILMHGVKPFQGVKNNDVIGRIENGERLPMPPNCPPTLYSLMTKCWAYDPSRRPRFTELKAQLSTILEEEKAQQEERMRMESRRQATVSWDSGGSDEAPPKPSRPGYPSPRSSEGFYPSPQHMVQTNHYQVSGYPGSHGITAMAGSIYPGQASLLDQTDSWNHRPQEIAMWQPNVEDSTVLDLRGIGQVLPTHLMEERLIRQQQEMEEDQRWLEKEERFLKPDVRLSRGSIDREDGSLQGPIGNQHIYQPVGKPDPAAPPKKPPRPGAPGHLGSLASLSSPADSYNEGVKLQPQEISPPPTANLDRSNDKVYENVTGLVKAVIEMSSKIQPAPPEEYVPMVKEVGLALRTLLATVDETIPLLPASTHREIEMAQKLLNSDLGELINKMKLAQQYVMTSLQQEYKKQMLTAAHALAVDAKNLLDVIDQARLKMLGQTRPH
T3 sequence (P06213 28-1382): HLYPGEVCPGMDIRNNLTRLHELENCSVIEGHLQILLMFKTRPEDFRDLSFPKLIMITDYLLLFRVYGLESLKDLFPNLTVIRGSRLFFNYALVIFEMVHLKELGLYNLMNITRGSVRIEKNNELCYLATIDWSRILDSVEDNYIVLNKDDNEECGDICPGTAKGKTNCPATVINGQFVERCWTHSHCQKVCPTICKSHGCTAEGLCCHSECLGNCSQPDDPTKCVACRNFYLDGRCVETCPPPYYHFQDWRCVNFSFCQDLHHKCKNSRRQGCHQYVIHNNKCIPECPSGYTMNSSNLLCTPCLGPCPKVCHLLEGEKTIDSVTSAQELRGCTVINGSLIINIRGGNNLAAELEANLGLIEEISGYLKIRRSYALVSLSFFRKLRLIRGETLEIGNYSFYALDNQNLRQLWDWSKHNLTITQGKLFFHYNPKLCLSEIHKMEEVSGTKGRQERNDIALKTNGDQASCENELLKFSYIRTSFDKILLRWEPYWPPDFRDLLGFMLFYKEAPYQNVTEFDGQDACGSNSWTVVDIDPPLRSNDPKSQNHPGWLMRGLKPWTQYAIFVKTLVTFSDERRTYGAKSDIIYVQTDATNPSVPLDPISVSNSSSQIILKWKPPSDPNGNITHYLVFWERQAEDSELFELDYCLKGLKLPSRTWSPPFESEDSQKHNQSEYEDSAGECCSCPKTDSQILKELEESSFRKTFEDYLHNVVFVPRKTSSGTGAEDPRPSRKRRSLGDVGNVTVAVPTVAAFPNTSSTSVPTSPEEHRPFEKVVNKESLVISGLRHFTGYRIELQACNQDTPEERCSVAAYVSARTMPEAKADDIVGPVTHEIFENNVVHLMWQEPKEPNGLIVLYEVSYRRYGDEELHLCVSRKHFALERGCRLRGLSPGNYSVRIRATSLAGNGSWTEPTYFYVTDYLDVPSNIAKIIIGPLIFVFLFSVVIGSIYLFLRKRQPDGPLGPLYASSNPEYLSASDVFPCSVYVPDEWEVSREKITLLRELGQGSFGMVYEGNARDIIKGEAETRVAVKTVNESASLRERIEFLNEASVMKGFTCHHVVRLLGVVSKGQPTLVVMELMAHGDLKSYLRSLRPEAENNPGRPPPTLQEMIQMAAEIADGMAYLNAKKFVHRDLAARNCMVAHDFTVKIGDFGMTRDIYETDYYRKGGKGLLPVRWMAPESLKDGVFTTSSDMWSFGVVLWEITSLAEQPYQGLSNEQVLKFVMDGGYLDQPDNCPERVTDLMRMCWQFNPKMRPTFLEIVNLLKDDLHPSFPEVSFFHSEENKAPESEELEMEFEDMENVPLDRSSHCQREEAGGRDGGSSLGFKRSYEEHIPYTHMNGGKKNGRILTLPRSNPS

Row | pIC50 (IGF1R) | pIC50 [1] | pIC50 (TGFβR1) | pIC50 (insulin receptor (InsR)) | melting point | pIC50 (SGK1) | SMILES
1 | 7.22 | 7.11 | 6.92 | 5.68 | 193 to 194 °C |  | Nc1ncnc2c1c(-c1cccc(O)c1)cn2C1CC(CN2CCCC2)C1 (stereo not drawn) [Compound 1, 3-[4-amino-7-(3-pyrrolidin-1-ylmethylcyclobutyl)-7H-pyrrolo[2,3-d]pyrimidin-5-yl]phenol]
2 | 6.96 | 6.59 | 6.85 |  |  | 5.13 | Nc1ncnc2c1c(-c1cccc(O)c1)cn2C1CC(CN2CCCC2)C1 (stereo not drawn) [Compound 2, 3-[4-Amino-7-(3-pyrrolidin-1-ylmethylcyclobutyl)-7H-pyrrolo[2,3-d]pyrimidin-5-yl]phenol]
3 | 6.03 | 6.43 | 6.74 | 4.92 | 142 to 144 °C |  | NCC1CC(n2cc(-c3ccc4[nH]ccc4c3)c3c(N)ncnc32)C1 (stereo not drawn) [Compound 3, 7-(3-Aminomethylcyclobutyl)-5-(1H-indol-5-yl)-7H-pyrrolo[2,3-d]pyrimidin-4-ylamine]
4 | 5.08 | 5.21 | 6.68 |  |  | 5.21 | NCC1CC(n2cc(-c3cc4ccccc4o3)c3c(N)ncnc32)C1 (stereo not drawn) [Compound 37]
